Data as given in patent publication US8309610B2, “Crystalline forms of (1RS,3RS,6RS)-6-dimethylaminomethyl-1-(3-methoxyphenyl)cyclohexane-1,3-diol hydrochloride” (priority 2005, dated 2012).
Structures can show the parent of a compound that is named as a salt.

How the values were obtained:
Format in all cases: physicochemical
[1] = storage in humidity chamber, polymorph conversion
Excerpt: Crystalline form B in an open glas container is stored in a humidity chamber at relative humidity of 35% and room temperature. Samples were taken prior to storage and after 4, 14, 19 and 21 days of storage under these conditions.
Crystalline form B in an open glas container is stored in a humidity chamber at relative humidity of 60% and room temperature. Samples were taken prior to storage and after 7, 17 and 22 days of storage under these conditions.
Crystalline form B in an open glas container is stored in a humidity chamber at relative humidity of 75% and room temperature. Samples were taken prior to storage and after 6, 13 and 23 days of storage under these conditions.

[2] = variable temperature X-ray powder diffraction experiment; conditions: 90° C., after half an hour
Protocol: Variable temperature Powder Diffraction Data Collection was carried out on a Shimadzu XRD-6000X-ray powder diffractometer using Cu Kα radiation. The instrument is equipped with a fine focus X-ray tube. The tube voltage and amperage were set to 40 kV and 40 mA, respectively. The divergence and scattering slits were set at 1° and the receiving slit was set at 0.15 mm. Diffracted radiation was detected by a NaI scintillation detector. A theta-two theta continuous scan at 3°/min (0.4 sec/0.02° step) from 2,5 to 40° 2 θ was used. A silicon standard was analyzed each day to check the instrument alignment. The instrument was equipped with an Anton Paar HTK 1200 high temperature stage and a ceramic sample holder

[3] = water absorption / hygroscopicity
[4] = stability in organic media; conditions: chloroform, dioxane, ethyl acetate, hexane, tetrahydrofuran, toluene; room temperature or higher (e.g. up to 40° C.)
[5] = solubility in water

Which results are given for COc1cccc([C@@]2(O)C[C@H](O)CC[C@@H]2CN(C)C)c1 (racemic) [form B, (1RS,3RS,6RS)-6-Dimethylaminomethyl-1-(3-methoxy-phenyl)cyclohexane-1,3-diol hydrochloride]?
crystalline form found after storage [1]: crystalline form B only; conversion to another polymorph under high humidity ([1]; high humidity): not converted to another polymorph; solid form conversion on heating [2]: converted to form E

With COc1cccc([C@@]2(O)C[C@H](O)CC[C@@H]2CN(C)C)c1 (racemic) [form C, (1RS,3RS,6RS)-6-Dimethylaminomethyl-1-(3-methoxy-phenyl)cyclohexane-1,3-diol hydrochloride] as the molecule, how does the hygroscopicity ([3]; compared with all known polymorphic forms) read?
Its hygroscopicity is “lowest hygroscopicity of all known polymorphic forms”.

Which “resistance to water absorption” value ([3]; up to 60% relative humidity, room temperature, at least up to three weeks) does the source give for COc1cccc([C@@]2(O)C[C@H](O)CC[C@@H]2CN(C)C)c1 (racemic) [form A, (1RS,3RS,6RS)-6-Dimethylaminomethyl-1-(3-methoxy-phenyl)cyclohexane-1,3-diol hydrochloride] here?
The value was “resistant to water absorption”.

What about the “stability in organic media” value [4] of the same molecule?
Its value is “stable in organic media”.

And the solubility in water [5]?
The solubility in water was “very high solubility in water”.
